Results reported in US4937390A, “Compound useful for the production of 3-deoxy-3-fluoro-myo-inositol” (University of Pittsburgh, priority 1989, dated 1990).

Test system: PC12 cells
Experiment: Cell growth inhibition (cell counts), dose response and time course in PC12 cells
Assay type: cell-based, rat
Conditions: for concentration determined to have maximal effects in the dose response study / inhibition of cell replication / Cell Number / potency at inhibiting cell replication relative to the 3-fluoro-myo-inositol analog: PC12 cells; for concentration determined to have maximal effects in the dose response study: cell replication; for inhibition of cell replication: dose response study, maximal effect; for inhibition of cell replication / Cell Number: five days
Method: The biological effects of the 3-fluoro and 1-fluoro myo-inositol analogs were tested in PC12 cells, a cell line derived from a rat pheochromocytoma, which has been widely used to study the effects of various growth factors and […]., Adv. Cell Neurobiol., 3, 373-414, (1982), the disclosure of which is incorporated herein by reference.
PC12 cells were seeded at a density of 3.3×10^5 cells/cm^2 in plastic culture dishes and grown at 37° C. in a humidified atmosphere of 95% air/5% CO2. The basal medium used in these experiments was RPMI-1640 medium (Gibco). In some experiments a specially formulated inositol-free RPMI-1640 medium (Gibco) was used. This basal medium was supplemented with either normal or extensively dialyzed horse serum (10%) and fetal calf serum (5%) (Gibco). Some control dishes were grown in complete RPMI medium, i.e. with myo-inositol and containing non-dialyzed serum (Control 1) and some control dishes were grown in inositol deficient medium, i.e., RPMI without inositol and with dialyzed serum (Control 2). The inositol analogs were dissolved in distilled H2 O and added to the culture medium at the indicated concentrations.
Cell counts were performed by removing the medium, washing the cells gently in PBS with calcium, detaching the cells by 15 minute induction in PBS/EDTA (0.5 mM) containing 0.1% trypsin, and counting in a hemocytometer.
A dose-response study was performed by growing cells in the presence of certain concentrations of the 3-fluoro and the 1-fluoro-myo-inositol analogs. At the end of five days, the cells were counted by the means described hereinabove.
The time course effect on cell replication was then examined, using the concentration of 1-fluoro and 3-fluoro myo-inositol analogs determined to have maximal effects in the dose response study of Table 1. (1 mM and 5 mM for the 1-fluoro and 3-fluoro-myo-inositol analogs, respectively).

Row | SMILES | concentration determined to have maximal effects in the dose response study | inhibition of cell replication | Cell Number (0.01 mM) | Cell Number (0.03 mM) | Cell Number (0.10 mM) | Cell Number (0.30 mM) | Cell Number (1.0 mM) | Cell Number (3.0 mM) | Cell Number (10.0 mM) | Cell Number (30.0 mM) | other results
1 | O[C@@H]1[C@@H](O)[C@@H](O)[C@@H](F)[C@H](O)[C@H]1O [1-deoxy-1-fluoro-myo-inositol] | 1 mM | approximately 50% | 4.53 ± 0.13 × 10^5 cells/dish | 4.18 ± 0.07 × 10^5 cells/dish | 3.71 ± 0.03 × 10^5 cells/dish | 3.29 ± 0.08 × 10^5 cells/dish | 2.73 ± 0.13 × 10^5 cells/dish | 2.67 ± 0.09 × 10^5 cells/dish | 2.68 ± 0.07 × 10^5 cells/dish | 2.72 ± 0.03 × 10^5 cells/dish | Time course cell counts (Day 0, 1 mM, inositol-free medium): 1.46 × 10^5 cells per dish; Time course cell counts (Day 1, 1 mM): 2.10 ± 0.03 cells per dish, × 10^5; Time course cell counts (Day 3, 1 mM): 4.5 ± 0.10 cells per dish, × 10^5; Time course cell counts (Day 5, 1 mM): 8.4 ± 0.7 cells per dish, × 10^5; Time course cell counts (Day 7, 1 mM): 10.8 ± 0.6 cells per dish, × 10^5; potency at inhibiting cell replication relative to the 3-fluoro-myo-inositol analog (listed as 1-deoxy-1-deoxy-1-fluoro-myo-inositol): about five-fold; potency at inhibiting cell replication relative to the 3-fluoro-myo-inositol analog (listed as 1-fluoro-myo-inositol analog): 5 fold
2 | O[C@@H]1[C@@H](O)[C@H](O)[C@@H](F)[C@@H](O)[C@H]1O [3-deoxy-3-fluoro-myo-inositol] | 5 mM | approximately 50% | 4.60 ± 0.24 × 10^5 cells/dish | 4.49 ± 0.07 × 10^5 cells/dish | 4.21 ± 0.05 × 10^5 cells/dish | 3.87 ± 0.05 × 10^5 cells/dish | 3.21 ± 0.08 × 10^5 cells/dish | 2.53 ± 0.04 × 10^5 cells/dish | 2.50 ± 0.03 × 10^5 cells/dish | 2.36 ± 0.01 × 10^5 cells/dish | Time course cell counts (Day 0, 5 mM, inositol-free medium): 1.46 × 10^5 cells per dish; Time course cell counts (Day 1, 5 mM): 2.12 ± 0.02 cells per dish, × 10^5; Time course cell counts (Day 3, 5 mM): 4.2 ± 0.1 cells per dish, × 10^5; Time course cell counts (Day 5, 5 mM): 7.6 ± 0.1 cells per dish, × 10^5; Time course cell counts (Day 7, 5 mM): 10.6 ± 0.6 cells per dish, × 10^5
